# Experimental data from patent US5395827A, “ω-[2-(phosphonoalkyl)phenyl]-2-aminoalkanoic acids as antagonists of excitatory amino acid receptors” (priority 1993, dated 1995).
# Columns and labels:
# kainate receptors = details: U.S. Pat. No. 4,657,899, Table I on column 13; cited from earlier work
# NMDA = details: U.S. Pat. No. 4,657,899; cited from earlier work
# PTZ-induced seizures = experiment: Protection against pentylenetetrazole (PTZ)-induced seizures; type: in vivo, mouse (male CF-1); details: for ED50: Mus musculus, ip, 0.5 h, i.p.; for ED50 / ED50 against PTZ-induced seizures, i.c.v.: 30 min before s.c. PTZ 85 mg/kg
# Protocol: Animals were then placed in individual observation cages and monitored for 30 min for the appearance of clonic convulsions. Failure to observe a clonic convulsion lasting at least 5 sec during the observation period was considered evidence of anticonvulsant activity.
# PTZ seizure studies were performed as described in the text.
# [1] = target: kainic acid (KA) receptor; experiment: Inhibition of KA-induced currents in rat brain mRNA-injected Xenopus oocytes; type: cell-based; details: for Ki, inhibition of KA-induced currents: Table I, Xenopus oocytes injected with rat brain mRNA, IC50 converted by Cheng-Prusoff equation; for Ki: read-out: Ki values (Table I)
# Protocol: (§1) Defolliculated oocytes obtained from Xenopus laevis females were injected with 30-75 ng of poly (A^+) mRNA obtained from 21-day old male Sprague-Dawley rats. Oocytes are placed individually in […] of antibiotic-supplemented modified Barthes solution (MBS, containing in mM: NaCl, 88; KCl, 1.0; NaHCO3, 2.4; HEPES, 10; MgSO4, 0.82; Ca(NO3)2, 0.33) in 96-well sterile plates and cultured for 48-120 hours prior to experimentation. Oocytes are inspected every 24 hours at which time the bathing solution is replaced with fresh MBS.
# (§2) For electrophysiological studies, oocytes are positioned in a small recording chamber ([…]) and superfused with antibiotic-free MBS supplemented with CaCl2 (final concentration=1.4 mM). For NMDA studies, MgSO4 is replaced with NaSO4 (0.55 mM). Oocytes are impaled with a single glass microelectrode, voltage-clamped at -60 to -70 mV, and perfused by gravity feed at a rate of 3-5 ml/min at room temperature. Drugs are dissolved in the perfusate (pH adjusted to 7.3-7.4) and perfused for 1-2 min or until the response has reached a plateau, followed by a 4 min perfusion in the absence of drug(s). Antagonists are coperfused with agonists. MBS used in NMDA assays is prepared from "glycine-free", deionized water.
# (§3) Potencies to inhibit kainic acid-, AMPA- and NMDA/glycine-induced currents are determined from concentration-response curves. IC50 values and Hill coefficients are determined by analysis of indirect Hill plots. IC50 values are converted to Ki values for comparison purposes using the Cheng-Prusoff equation.
# AMPA receptor = experiment: Inhibition of AMPA-induced currents in rat brain mRNA-injected Xenopus oocytes; type: cell-based; details: Table I; Xenopus oocytes injected with rat brain mRNA; IC50 converted by Cheng-Prusoff equation
# Protocol: as §1, §2, §3
# [2] = system: choline acetyltransferase (ChAT), marker for striatal cholinergic interneurons; experiment: Kainic acid-induced striatal toxicity, choline acetyltransferase (ChAT) activity; type: in vivo, rat (male Sprague-Dawley)
# Protocol: (§4) Kainic acid-induced lesion studies were performed using rats (male Sprague-Dawley, 200-250 g, Harlan Industries). Animals were anesthetized with Chloropent (1.5 ml/kg) and a cannula was inserted into the corpus striatum at the coordinates A 0.8, V 4.3, L 3.0 (bregma=0) using standard stereotaxic procedures. Compounds were dissolved in dH2 O and neutralized using dilute NaOH, and administered over a period of 2 min in a final volume of […]. Following an additional 2 min the cannula was withdrawn, the incision closed with woundclips, and the animals returned to their home cage for a 3 day recovery period. Kainic acid (10 nmoles) was used to induce striatal lesions. Compound XX (300 nmoles) was coadministered with kainic acid.
# (§5) Following decapitation, the corpus striatum ipsiand contralateral to the injection were removed, immediately frozen on dry ice, and stored at -80° C. until assayed. The activities of choline acetyltransferase (ChAT) and glutamic acid decarboxylase (GAD), markers for striatal cholinergic and GABAergic interneurons, respectively, were determined using standard procedures to assess the extent of the lesion.
# (§6) Ka-induced lesions were performed as described in the text. The results are expressed as the percentage of enzyme activity in the ipsilateral (injected) striatum relative to enzyme activity in the contralateral (uninjected) striatum. The values represent the mean+standard deviation of 4 (Example I) or 12 (vehicle) determinations.
# [3] = system: glutamic acid decarboxylase (GAD), marker for striatal GABAergic interneurons; experiment: Kainic acid-induced striatal toxicity, glutamic acid decarboxylase (GAD) activity; type: in vivo, rat (male Sprague-Dawley)
# Protocol: as §4, §5, §6
# [4] = coadministered (300 nmoles) with kainic acid (10 nmoles), intrastriatal, 3 day recovery, mean+standard deviation of 4
# [5] = coadministration of kainic acid with Example I
# [6] = intrastriatal injection of kainic acid alone (10 nmoles)
smiles,measurement,setting,value
NC(Cc1ccccc1CCP(=O)(O)O)C(=O)O (stereo not drawn) [2-amino-3-[2-(2-phosphonoethyl)phenyl]propanoic acid],binding affinity for kainate receptors (in words),kainate receptors,very low binding affinity
same,NMDA antagonism (in words),NMDA,antagonists of NMDA
NC(Cc1ccccc1CCCP(=O)(O)O)C(=O)O (stereo not drawn) [2-amino-3-[2-(3-phosphonopropyl)phenyl]propanoic acid],binding affinity for kainate receptors (in words),kainate receptors,very low binding affinity
same,NMDA antagonism (in words),NMDA,antagonists of NMDA
NC(Cc1ccccc1CP(=O)(O)O)C(=O)O (stereo not drawn) [2-amino-3-[2-phosphonomethylphenyl]propanoic acid],binding affinity for kainate receptors (in words),kainate receptors,very low binding affinity
same,NMDA antagonism (in words),NMDA,antagonists of NMDA
NC(CCCc1ccccc1CP(=O)(O)O)C(=O)O (stereo not drawn) [2-amino-5-[2-phosphonomethylphenyl]pentanoic acid],binding affinity for kainate receptors (in words),kainate receptors,very low binding affinity
same,NMDA antagonism (in words),NMDA,antagonists of NMDA
"O=C(O)C1CN(CCCP(=O)(O)O)CCN1 (stereo not drawn) [CPP, reference compound]",ED50,PTZ-induced seizures,7.3 mg/kg
same,"ED50 against PTZ-induced seizures, i.c.v.",PTZ-induced seizures; i.c.v.,0.15 nmol
"O=c1[nH]c2cc([N+](=O)[O-])c([N+](=O)[O-])cc2[nH]c1=O [DNQX, reference compound]","Ki, inhibition of KA-induced currents",[1],0.1 µM
same,Ki,AMPA receptor,0.25 µM
"Cc1ccc(CCP(=O)(O)O)c(C[C@H](N)C(=O)O)c1 [Example 1, 5-Methyl-2-(2-phosphonoethyl)phenylalanine]","Ki, inhibition of KA-induced currents",[1],11 µM
same,Ki,[1],< 100 µM
same,Ki,AMPA receptor,13 µM
same,ED50,PTZ-induced seizures,98 mg/kg
same,potency relative to CPP against PTZ-induced seizures,PTZ-induced seizures; i.c.v.,~2 times
same,"ED50 against PTZ-induced seizures, i.c.v.",PTZ-induced seizures; i.c.v.,0.09 nmol
same,protection against PTZ-induced seizures (in words),"PTZ-induced seizures; mouse, in vivo",dose-dependent protection against PTZ-induced seizures
same,effect against PTZ-induced seizures following systemic administration (in words),"PTZ-induced seizures; systemic (i.p.) administration, compared with CPP","effective following systemic administration, but was less potent than CPP"
same,"ChAT, % Activity of Contralateral Striatum",[2]; [4],98 ± 6%
same,reduction in ChAT activity,[2]; [5],2%
same,"GAD, % Activity of Contralateral Striatum",[3]; [4],88 ± 17%
same,reduction in GAD activity,[3]; [5],12%
"CCc1ccc(CCP(=O)(O)O)c(C[C@H](N)C(=O)O)c1 [Example 2, 5-Ethyl-2-(2-phosphonoethyl)phenylalanine]","Ki, inhibition of KA-induced currents",[1],17 µM
same,Ki,[1],< 100 µM
same,Ki,AMPA receptor,50 µM
"N[C@@H](Cc1cc(Br)ccc1CCP(=O)(O)O)C(=O)O [Example 3, 5-Bromo-2-(2-phosphonoethyl)phenylalanine]","Ki, inhibition of KA-induced currents",[1],10 µM
same,Ki,[1],< 100 µM
same,Ki,AMPA receptor,61 µM
"N[C@@H](Cc1cc(Cl)ccc1CCP(=O)(O)O)C(=O)O [Example 4, 5-Chloro-2-(2-phosphonoethyl)phenylalanine]","Ki, inhibition of KA-induced currents",[1],15 µM
same,Ki,[1],< 100 µM
same,Ki,AMPA receptor,48 µM
"N[C@@H](Cc1cc(F)ccc1CCP(=O)(O)O)C(=O)O [Example 5, 5-Fluoro-2-(2-phosphonoethyl)phenylalanine]","Ki, inhibition of KA-induced currents",[1],68 µM
same,Ki,[1],< 100 µM
same,Ki,AMPA receptor,167 µM
"N[C@@H](Cc1cc(I)ccc1CCP(=O)(O)O)C(=O)O [Example 6, 5-Iodo-2-(2-phosphonoethyl)phenylalanine]","Ki, inhibition of KA-induced currents",[1],3.6 µM
same,Ki,[1],< 100 µM
same,Ki,AMPA receptor,16 µM
"Cc1cc(C)c(CCP(=O)(O)O)c(C[C@H](N)C(=O)O)c1 [Example 7, 3,5-Dimethyl-2-(2-phosphonoethyl)phenylalanine]","Ki, inhibition of KA-induced currents",[1],12 µM
same,Ki,AMPA receptor,39 µM
"CC(C)(C)c1ccc(CCP(=O)(O)O)c(C[C@H](N)C(=O)O)c1 [Example 10, 5-t-Butyl-2-(2-phosphonoethyl)phenylalanine]","Ki, inhibition of KA-induced currents",[1],29 µM
"N[C@@H](Cc1cc(-c2ccccc2)ccc1CCP(=O)(O)O)C(=O)O [Example 11, 5-Phenyl-2-(2phosphonoethyl)-phenylalanine]","Ki, inhibition of KA-induced currents",[1],76 µM
same,Ki,[1],< 100 µM
"Cl.N[C@@H](Cc1cc(C2CCCCC2)ccc1CCP(=O)(O)O)C(=O)O [Example 12, 5-Cyclohexyl-2-(2-phosphonoethyl) phenylalanine hydrochloride]","Ki, inhibition of KA-induced currents",[1],139 µM
"Cc1cccc(C[C@H](N)C(=O)O)c1CCP(=O)(O)O [Example 15, 3-Methyl-2-(2-phosphonoethyl)phenylalanine]","Ki, inhibition of KA-induced currents",[1],> 100 µM
"Cl.N[C@@H](Cc1cccc(-c2ccccc2)c1CCP(=O)(O)O)C(=O)O [Example 16, 3-Phenyl-2-(2-phosphonoethyl) phenylalanine hydrochloride]","Ki, inhibition of KA-induced currents",[1],83 µM
"CCOC(=O)[C@@H](N)Cc1cc(C)ccc1CCP(=O)(O)O [Example 17, 5-Methyl-2-(2-phosphonoethyl)phenylalanine ethyl ester]","Ki, inhibition of KA-induced currents",[1],> 100 µM
"N[C@@H](Cc1ccc([N+](=O)[O-])cc1CCP(=O)(O)O)C(=O)O [Example 22, 4-Nitro-2-(2-phosphonoethyl)phenylalanine]","Ki, inhibition of KA-induced currents",[1],13 µM
"C=C(C)[C@H]1CN[C@H](C(=O)O)[C@H]1CC(=O)O [kainic acid, reference compound]",reduction in ChAT activity,[2]; [6],68%
same,reduction in GAD activity,[3]; [6],55%
